Results published in patent publication US9095653B2, “Method for the timed dosage of medicaments” (BAYER INTELLECTUAL PROPERTY GMBH, priority 2004, dated 2015).
≈ marks a conversion by molar mass, not a printed value. Like-named read-outs stand apart in the source and are kept apart here.

What was measured:
[1] = cited from earlier work
[2] = Solubility, substance input parameter; type: physicochemical; conditions: input parameter for PK-Sim
[3] = Lipophilicity (LogMA), substance input parameter for PK-Sim; type: physicochemical
[4] = average value for an adult human; cited from earlier work
[5] = Plasma clearance adapted in PK-Sim simulation to experimental literature concentration-time profiles; type: in vivo, humans; conditions: human, read-out: plasma clearance CL
Protocol: Drug Dispos. 20, 417-419 (1999)) and a muscle concentration-time profile from the literature (M. Müller, B. v. Osten, R. Schmid, E. Piegler, I. Gerngross, H. Buchegger, H. G. Eichler: “Theophylline kinetics in peripheral tissues in vivo in humans”, Naunyn-Schmiedeberg's Arch. Pharmacol. 352, 438-441 (1995)) (FIG. 2).
The plasma clearance here is CL=0.40 ml/min/kg. (source: [12]) • b) Intravenous infusion of 240 mg over 10 minutes. […] (source: [13]) • c) Peroral administration of 200 mg of an immediately releasing formulation (mean and standard deviation of three bioequivalent immediate release capsules).

Compound: Cn1c(=O)c2[nH]cnc2n(C)c1=O [Theophylline]
- plasma concentration below which a sufficient anti-asthmatic effect is not generally achieved [1]: below 5 mg/l
- solubility [2]: 2800 µg/mL (≈ 15.5 mM)
- Lipophilicity (LogMA) [3]: −0.2
- Free plasma fraction [4]: 59%
- clearance ([5]; intravenous infusion of 5.58 mg/kg over 20 minutes, adapted to experimental data (FIG. 2a)): 0.4 mL/min/kg
- clearance ([5]; intravenous infusion of 240 mg over 10 minutes, adapted to experimental data (FIG. 2b)): 0.25 mL/min/kg
- clearance ([5]; oral, peroral administration of 200 mg immediately releasing formulation, adapted to experimental data (FIG. 2c)): 0.5 mL/min/kg
